# Source: patent US7015309B1 (The Wistar Institute of Anatomy and Biology, priority 1999, dated 2006)
# “Also recorded” adds a separate entry of the source. Read-outs that look alike come from different tables or passages of the source. Non-standard residues stand in square brackets, D forms with d. Residues, ends and D or L forms follow the SMILES beside them. No end group written: not given here.
# Columns and labels:
# [1] = test system: Agrobacterium tumefaciens; conditions: read-out: IC50 in μM against Agrobacterium tumefaciens; 30° C., 24 hours; for Peptide 22 original assay (a)
# Method: (§1) Growth inhibition assays were performed using the peptides of Example 1 and the Gram positive microorganisms Micrococcus luteus and Bacillus megaterium, and the Gram negative microorganisms, Escherichia coli D22, Agrobacterium tumefaciens, and Salmonella typhimurium. Anti-bacterial assays were performed in sterilized 96-well plates (Nunc F96 microtiter plates) with a final volume of 100 μl as described in Bulet (1996), cited above. Briefly, 90 μl of a suspension of a midlogarithmic phase bacterial culture at an initial 600 nm UV absorbence of 0.001 in Luria-Bertani rich nutrient medium was added to 10 μl of serially diluted peptides in sterilized water. The final peptide concentrations ranged between 0.15 and 80 μM. The plates were incubated at 30° C. for 24 hours with gentle shaking, and the growth inhibition was measured by recording the increase of the UV absorbence at 600 nm on an SLT Labinstruments 400 ATC microplate reader. The experiments were conducted over a 7-month period.
# Salmonella typhimurium = conditions: read-out: IC50 in μM against Salmonella typhimurium; 30° C., 24 hours; for Peptide 22 original assay (a)
# Method: as §1
# Micrococcus luteus = test system: Micrococcus luteus
# Method: as §1
# Escherichia coli D22 = conditions: read-out: IC50 in μM against Escherichia coli D22; 30° C., 24 hours; for Peptide 22 original assay (a)
# Method: as §1
# Bacillus megaterium = conditions: read-out: IC50 in μM against Bacillus megaterium; 30° C., 24 hours; for Peptide 22 original assay (a)
# Method: as §1
# sheep erythrocytes = assay: Hemolytic activity, release of hemoglobin; conditions: for Absorbence at 405 nm: one hour, 39° C.
# Method: To determine whether native and modified pyrrhocoricin peptides were toxic to mammalian cells, several peptides from Example 1 above, a positive control, and a negative control were examined for hemolytic activity. Hemolytic activity was assayed with sheep erythrocytes suspended in Alsever's solution (BioWhittaker, Walkersville, Md.), and diluted with Dulbecco's phosphate-buffered saline, pH 7.2. Thirty μL of a 1% suspension of the red blood cells was incubated with agitation at 39° C. with 30 μL of 40 to 256 μM of each of the following peptides dissolved in phosphate buffered saline for one hour and centrifuged at 1000 g for five minutes. Fifty μL of the supernatant was collected and the release of hemoglobin was detected by measuring the ultraviolet absorbences of triplicate samples of the 40 μM or 256 μM test peptides and the control peptides at 405 nm.
# [2] = In vivo toxicity control, uninfected mice; parameters: species or system mice of CD-1 strain; conditions: 50 mg/kg dose, intravenous
# [3] = mouse serum, 45-minute digestion, MALDI-MS peak height
# Method: (§2) Owing to the fact that the use of diluted serum increases peptide recovery as well as retards the reaction kinetics to a manageable rate, the experiments were conducted using 25% aqueous sera.
# (§3) For serum stability studies, 10 μl of an aqueous peptide stock solution containing about 0.8 mg/ml peptide was added to 200 μl 25% aqueous pooled mouse or human serum (Sigma, St. Louis, Mo.), according to the process described in M. F. Powell et al, Pharmacol Res, 10: 1268–1273 (1993). The peptide-serum mixture was thermostated at 37° C. After 0 minutes, 45 minutes, 2 hours and 4 hours, three samples of each peptide were taken and precipitated by the addition of 40 μl 15% aqueous trichloroacetic acid. The samples were stored at 4° C. for 20 minutes and centrifuged. The peptides and some remaining serum proteins were recovered in the supernatant after the trichloroacetic acid precipitation. The supernatants were immediately frozen on dry-ice and 220 μl of each were analyzed on RP-HPLC. A mouse serum and two different batches of the same SIGMA catalog number of human sera (human 1, approximately 1 year old, and human 2, approximately 1 month old) were also used.
# (§4) The lyophilized samples were redissolved in 0.1 aqueous TFA and submitted for matrix assisted laser desorption/ionization (MALDI-MS).
# (§5) The missing residues are indicated (e.g—C2 means that the C-terminal two residues are cleaved off). […] In Table 4, the relative amounts of the degradation products are estimated based on the MALDI-MS peak heights. 0=not detected; 1=very weak (below 5000), 2=weak (5–10000), 3=medium (10–15000), 4=strong (15000-uncleaved molecular ion at 25–30000), 5=very strong (above uncleaved molecular ion).
# COS cells = assay: Direct killing of immortalized COS cells; type: cell-based
# Excerpt: In another toxicity assay, COS cell survival was studied for pyrrhocoricin and cecropin B (Bachem Biosciences, King of Prussia, Pa.) as the positive control.
# [4] = 45-minute digestion
# Method: as §2, §3, §4, §5
# in vitro = conditions: mouse, 25% aqueous pooled mouse serum
# Method: as §2, §3, §4, §5
# [5] = 25% aqueous pooled human serum (Sigma), human 2, approximately 1 month old; conditions: 37° C., up to 8 hours
# [6] = 25% aqueous pooled mouse serum (Sigma); conditions: 37° C., up to 8 hours
# [7] = 25% aqueous pooled human serum (Sigma), human 1, approximately 1 year old; conditions: 37° C., up to 8 hours
# [8] = read-out: IC50 in μM against Micrococcus luteus, 30° C., 24 hours, for Peptide 22 original assay (a)
# [9] = human 1 serum (approximately 1 year old)
# [10] = human 2 serum (approximately 1 month old)
molecule,measurement,setting,value
PTPPRPIYNRN [Peptide 15],IC50,[1],> 80 µM
same,IC50,Salmonella typhimurium,> 80 µM
same,IC50,Micrococcus luteus; [8],> 80 µM
same,IC50,Escherichia coli D22,> 80 µM
same,IC50,Bacillus megaterium,> 80 µM
CC[C@@H](C)[C@@H](NC(=O)[C@H]1CCCN1C(=O)[C@@H](CCCNC(=N)N)NC(=O)[C@H]1CCCN1C(=O)[C@H]1CCCN1C(=O)[C@H](NC(=O)[C@H]1CCCN1C(=O)[C@@H](CCCNC(=N)N)NC(=O)[C@H]1CCCN1C(=O)[C@@H](CC(C)C)NC(=O)[C@@H](Cc1ccc(O)cc1)NC(=O)[C@@H](CO)NC(=O)CNC(=O)[C@@H](CCCCN)NC(=O)[C@@H](CC(=O)O)NC(=O)[C@H](N)C(C)C)[C@H](C)O)C(=O)N[C@H](Cc1ccc(O)cc1)C(=O)N[C@H](CC(N)=O)C(=O)N[C@H](CCCNC(=N)N)C(=O)N[C@H](CC(N)=O)C(N)=O [Peptide 13] (H-[dV][dD][dK]G[dS][dY][dL][dP][dR][dP][dT][dP][dP][dR][dP][dI][dY][dN][dR][dN]-NH2; N-terminus and C-terminus assumed),IC50,[1],> 80 µM
same,IC50,Salmonella typhimurium,> 80 µM
same,IC50,Micrococcus luteus; 24 h,40 µM
same,IC50,Escherichia coli D22,> 80 µM
same,IC50,Bacillus megaterium,> 80 µM
VDKGSYLPR [Peptide 14],IC50,[1],> 80 µM
same,IC50,Salmonella typhimurium,> 80 µM
same,IC50,Micrococcus luteus; [8],> 80 µM
same,IC50,Escherichia coli D22,> 80 µM
same,IC50,Bacillus megaterium,> 80 µM
VDKGSYLPRPTPPRPIYNRN-NH2 [Peptide 1],Absorbence at 405 nm,sheep erythrocytes; 40 μM peptide,0.108 ± 0.015
same,toxicity to sheep erythrocytes (in words),sheep erythrocytes; 256 μM concentration,completely non-toxic
same,Absorbence at 405 nm,sheep erythrocytes; 256 μM peptide,0.0135 ± 0.005
same,toxicity of peptide alone (in words),[2],"Neither Peptides 1 nor 21 [SEQ ID NOS: 6 and 22, respectively] alone showed any toxicity"
same,IC50,[1],< 0.075 µM
same,IC50,Salmonella typhimurium,0.6 µM
same,IC50,Micrococcus luteus; [8],10 µM
same,IC50,Escherichia coli D22,< 0.075 µM
same,IC50,Bacillus megaterium,5 µM
same,"Degradation product −C1, relative amount",[3],2 (2=weak (5–10000))
same,"Degradation product −C2, relative amount",[3],2 (2=weak (5–10000))
same,"Degradation product −C3, relative amount",[3],0
same,"Degradation product −C6, relative amount",[3],0
same,"Degradation product −N3, C2, relative amount",[3],0
same,"Degradation product −N3, relative amount",[3],0
same,"Degradation product −N5, C2, relative amount",[3],0
same,"Degradation product −N5, relative amount",[3],0
same,Cell Count after Treatment,COS cells; 5 μM peptide,18 ± 4
same,Cell Count after Treatment,COS cells; 10 μM peptide,12 ± 4
same,Cell Count after Treatment,COS cells; 50 μM peptide,11 ± 1
same,effect on cell count and rate of proliferation (in words),COS cells; up to 50 μM/mL concentration,did not change
same,"Degradation product −C1, relative amount",[4]; [9],3 (3=medium (10–15000))
same,"Degradation product −C2, relative amount",[4]; [9],4 (4=strong (15000-uncleaved molecular ion at 25–30000))
same,"Degradation product −C3, relative amount",[4]; [9],3 (3=medium (10–15000))
same,"Degradation product −C6, relative amount",[4]; [9],1 (1=very weak (below 5000))
same,"Degradation product −N3, C2, relative amount",[4]; [9],0
same,"Degradation product −N3, relative amount",[4]; [9],0
same,"Degradation product −N5, C2, relative amount",[4]; [9],0
same,"Degradation product −N5, relative amount",[4]; [9],2 (2=weak (5–10000))
same,"Degradation product −C1, relative amount",[4]; [10],2 (2=weak (5–10000))
same,"Degradation product −C2, relative amount",[4]; [10],2 (2=weak (5–10000))
same,"Degradation product −C3, relative amount",[4]; [10],0
same,"Degradation product −C6, relative amount",[4]; [10],0
same,"Degradation product −N3, C2, relative amount",[4]; [10],0
same,"Degradation product −N3, relative amount",[4]; [10],0
same,"Degradation product −N5, C2, relative amount",[4]; [10],0
same,"Degradation product −N5, relative amount",[4]; [10],0
same,remaining at 8 h,in vitro,20%
"1-aminocyclo-hexane carboxylic acid (Chex)-Pyrrhocoricin-β-acetyl-2,3-diamino propionic amide [Dap(Ac)]",cleaved bond,[5],"Asn18-Arg19, 45-minute; also recorded: Ser5-Tyr6, 45-minute"
same,fragment found,[5],"−N5, C2, 45-minute"
same,not cleaved,[5],−C1 not detected (0) after 45-minute digestion
same,cleaved bond,[6],"Asn18-Arg19, 45-minute; also recorded: Ser5-Tyr6, 45-minute"
same,not cleaved,[6],−C1 not detected (0) after 45-minute digestion
same,cleaved bond,[7],"Asn18-Arg19, 45-minute; also recorded: Ser5-Tyr6, 45-minute"
same,fragment found,[7],"−C3, 45-minute; also recorded: −N5, C2, 45-minute"
same,not cleaved,[7],−C1 not detected (0) after 45-minute digestion
